Several values for one entry are separate records, joined by “and”; a condition that tells them apart may be missing. Equal entries are not always repeated. Toxic doses and inconclusive results are not listed.
Tested on: P388 leukemia ip, CD2F1 mice, survival T/C
Assay: NCI In Vivo Anticancer Drug Screen. Data for tumor model P388 Leukemia (intraperitoneal) in CD2F1 (CDF1) mice
Details: endpoint: median survival time, higher = longer survival
Procedure, shortened: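 Mice carrying the transplanted tumor received test compound or vehicle. Survival was recorded in each group, and the value is the treated-group measurement divided by that of the vehicle-treated control group.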

[1] = dose: 6.25 mg/kg/injection, schedule: Q01DX009 (ip), vehicle: water
[2] = dose: 12.5 mg/kg/injection, schedule: Q01DX009 (ip), vehicle: water
[3] = dose: 60.0 mg/kg/injection, schedule: Q01DX005 (ip), vehicle: saline with Tween-80
[4] = dose: 120.0 mg/kg/injection, schedule: Q01DX005 (ip), vehicle: saline with Tween-80
[5] = dose: 240.0 mg/kg/injection, schedule: Q01DX005 (ip), vehicle: saline with Tween-80
[6] = dose: 50.0 mg/kg/injection, schedule: Q01DX009 (ip), vehicle: saline
[7] = dose: 60.0 mg/kg/injection, schedule: Q01DX005 (ip), vehicle: Klucel (hydroxypropylcellulose) (HPC)
[8] = dose: 120.0 mg/kg/injection, schedule: Q01DX005 (ip), vehicle: Klucel (hydroxypropylcellulose) (HPC)
[9] = dose: 100.0 mg/kg/injection, schedule: Q01DX001 (ip), vehicle: Klucel (hydroxypropylcellulose) (HPC)
[10] = dose: 200.0 mg/kg/injection, schedule: Q01DX001 (ip), vehicle: Klucel (hydroxypropylcellulose) (HPC)
[11] = dose: 100.0 mg/kg/injection, schedule: Q01DX009 (ip), vehicle: saline
[12] = dose: 200.0 mg/kg/injection, schedule: Q01DX009 (ip), vehicle: saline
[13] = dose: 50.0 mg/kg/injection, schedule: Q01DX009 (ip), vehicle: saline with Tween-80
[14] = dose: 100.0 mg/kg/injection, schedule: Q01DX009 (ip), vehicle: saline with Tween-80
[15] = dose: 200.0 mg/kg/injection, schedule: Q01DX009 (ip), vehicle: saline with Tween-80

**Q.** What does the source list for `CNc1nc(N(C)C)nc(N(C)C)n1`?
**A.** T/C [1]: 105 % of control and 96 % of control; T/C [2]: 105 % of control; T/C (dose: 16.0 mg/kg/injection, schedule: Q03HX008 (ip), vehicle: water): 102 % of control; T/C (dose: 16.0 mg/kg/injection, schedule: Q03HX016 (ip), vehicle: water): 96 % of control; T/C (dose: 16.0 mg/kg/injection, schedule: Q03HX024 (ip), vehicle: water): 96 % of control; T/C (dose: 25.0 mg/kg/injection, schedule: Q01DX009 (ip), vehicle: water): 105 % of control; T/C (dose: 30.0 mg/kg/injection, schedule: Q01DX009 (ip), vehicle: water): 104 % of control; T/C (dose: 32.0 mg/kg/injection, schedule: Q01DX005 (ip), vehicle: water): 99 % of control; T/C (dose: 32.0 mg/kg/injection, schedule: Q01DX009 (ip), vehicle: water): 86 % of control; T/C (dose: 32.0 mg/kg/injection, schedule: Q01DX009 (oral), vehicle: water): 110 % of control; T/C (dose: 32.0 mg/kg/injection, schedule: Q01DX009 (sc), vehicle: water): 106 % of control; T/C (dose: 32.0 mg/kg/injection, schedule: Q03HX008 (ip), vehicle: water): 103 % of control; T/C (dose: 32.0 mg/kg/injection, schedule: Q03HX016 (ip), vehicle: water): 100 % of control; T/C (dose: 32.0 mg/kg/injection, schedule: Q03HX024 (ip), vehicle: water): 114 % of control; T/C (dose: 44.0 mg/kg/injection, schedule: Q01DX009 (ip), vehicle: water): 104 % of control; T/C (dose: 50.0 mg/kg/injection, schedule: Q01DX009 (ip), vehicle: water): 112 % of control; T/C (dose: 64.0 mg/kg/injection, schedule: Q01DX001 (ip), vehicle: water): 102 % of control; T/C (dose: 64.0 mg/kg/injection, schedule: Q01DX001 (oral), vehicle: water): 103 % of control; T/C (dose: 64.0 mg/kg/injection, schedule: Q01DX005 (ip), vehicle: water): 109 % of control; T/C (dose: 64.0 mg/kg/injection, schedule: Q01DX009 (ip), vehicle: water): 93 % of control; T/C (dose: 64.0 mg/kg/injection, schedule: Q01DX009 (oral), vehicle: water): 115 % of control; T/C (dose: 64.0 mg/kg/injection, schedule: Q01DX009 (sc), vehicle: water): 117 % of control; T/C (dose: 64.0 mg/kg/injection, schedule: Q04DX003 (ip), vehicle: water): 105 % of control; T/C (dose: 64.0 mg/kg/injection, schedule: Q08DX002 (ip), vehicle: water): 103 % of control; T/C (dose: 67.0 mg/kg/injection, schedule: Q01DX009 (ip), vehicle: water): 116 % of control; T/C (dose: 128.0 mg/kg/injection, schedule: Q01DX001 (ip), vehicle: water): 102 % of control; T/C (dose: 128.0 mg/kg/injection, schedule: Q01DX001 (oral), vehicle: water): 101 % of control; T/C (dose: 128.0 mg/kg/injection, schedule: Q01DX005 (ip), vehicle: water): 99 % of control; T/C (dose: 128.0 mg/kg/injection, schedule: Q01DX009 (oral), vehicle: water): 96 % of control; T/C (dose: 128.0 mg/kg/injection, schedule: Q01DX009 (sc), vehicle: water): 86 % of control; T/C (dose: 128.0 mg/kg/injection, schedule: Q04DX003 (ip), vehicle: water): 112 % of control; T/C (dose: 128.0 mg/kg/injection, schedule: Q08DX002 (ip), vehicle: water): 114 % of control; T/C (dose: 256.0 mg/kg/injection, schedule: Q01DX001 (oral), vehicle: water): 100 % of control

**Q.** Which results are given for `CCCCOC1NC(=O)Oc2ccccc21` (configuration not stated)?
**A.** T/C [3]: 100 % of control and 103 % of control and 97 % of control; T/C [4]: 101 % of control and 108 % of control (2×); T/C [5]: 100 % of control and 109 % of control

**Q.** Which results are given for `CC1(C(=O)O)CCCC2(C)C3=CC(=O)OC3(OO)CCC12` (configuration not stated)?
**A.** T/C (dose: 12.5 mg/kg/injection, schedule: Q01DX009 (ip), vehicle: saline): 104 % of control; T/C (dose: 25.0 mg/kg/injection, schedule: Q01DX009 (ip), vehicle: saline): 101 % of control; T/C [6]: 101 % of control

**Q.** What does the source list for `O=C1C(N=Nc2ccc(Cl)cc2)Sc2nc3ccccc3n21` (configuration not stated)?
**A.** T/C [7]: 92 % of control; T/C [8]: 90 % of control

**Q.** For `O=C1c2ccsc2CN2C(=O)CCC12` (configuration not stated), which T/C [3] is on record?
**A.** Its T/C is 95 % of control.

**Q.** What about the T/C [4] of the same compound?
**A.** The T/C was 103 % of control.

**Q.** And the T/C [5]?
**A.** The T/C was 110 % of control.

**Q.** Which results are given for `O=C(O)/C(Cl)=C(\Cl)C(=O)Nc1ccc(Br)cc1`?
**A.** T/C (dose: 15.0 mg/kg/injection, schedule: Q01DX005 (ip), vehicle: saline with Tween-80): 102 % of control; T/C (dose: 30.0 mg/kg/injection, schedule: Q01DX005 (ip), vehicle: saline with Tween-80): 102 % of control; T/C [3]: 99 % of control and 111 % of control; T/C [4]: 104 % of control

**Q.** `COc1ccccc1/C=C\C1=CC(=O)CC(c2ccccc2OC)C1C` (configuration not stated) was tested. Which T/C (dose: 50.0 mg/kg/injection, schedule: Q01DX001 (ip), vehicle: Klucel (hydroxypropylcellulose) (HPC)) did it give?
**A.** Its T/C is 104 % of control.

**Q.** What about the T/C [9] of the same compound?
**A.** The T/C was 100 % of control.

**Q.** And the T/C [10]?
**A.** Its T/C is 91 % of control.

**Q.** Which results are given for `O=C1c2ccccc2C(=O)c2c1c(O)c1cccnc1c2O`?
**A.** T/C (dose: 50.0 mg/kg/injection, schedule: Q01DX005 (ip), vehicle: saline with Tween-80): 103 % of control; T/C (dose: 100.0 mg/kg/injection, schedule: Q01DX005 (ip), vehicle: saline with Tween-80): 100 % of control; T/C (dose: 200.0 mg/kg/injection, schedule: Q01DX005 (ip), vehicle: saline with Tween-80): 95 % of control

**Q.** Which T/C (dose: 50.0 mg/kg/injection, schedule: Q01DX009 (ip), vehicle: Klucel (hydroxypropylcellulose) (HPC)) does the source give for `Nn1nnnc1-c1ccccc1` here?
**A.** Its T/C is 96 % of control.

**Q.** What about the T/C (dose: 100.0 mg/kg/injection, schedule: Q01DX009 (ip), vehicle: Klucel (hydroxypropylcellulose) (HPC)) of the same compound?
**A.** The T/C was 100 % of control.

**Q.** What about the T/C (dose: 200.0 mg/kg/injection, schedule: Q01DX009 (ip), vehicle: Klucel (hydroxypropylcellulose) (HPC)) of the same compound?
**A.** The T/C was 95 % of control.

**Q.** Which T/C [6] does the source give for `CCNCC(=O)Nc1ccc(C2NC(=O)C(C)(C)c3ccccc32)cc1` (configuration not stated) here?
**A.** The T/C was 99 % of control.

**Q.** And the T/C [11]?
**A.** The T/C was 101 % of control.

**Q.** And the T/C [12]?
**A.** Its T/C is 97 % of control.

**Q.** With `COc1cc(NC(C)=O)c(OC)c2c(=O)cc(C(=O)O)[nH]c12` as the compound, how does the T/C [9] read?
**A.** Its T/C is 93 % of control.

**Q.** And the T/C [10]?
**A.** Its T/C is 98 % of control.

**Q.** What about the T/C (dose: 400.0 mg/kg/injection, schedule: Q01DX001 (ip), vehicle: Klucel (hydroxypropylcellulose) (HPC)) of the same compound?
**A.** The T/C was 99 % of control.

**Q.** What does the source list for `O=NNc1nccs1`?
**A.** T/C (dose: 1.56 mg/kg/injection, schedule: Q01DX009 (ip), vehicle: water): 96 % of control; T/C (dose: 3.12 mg/kg/injection, schedule: Q01DX009 (ip), vehicle: water): 100 % of control; T/C [1]: 99 % of control; T/C [2]: 97 % of control

**Q.** Which T/C [13] does the source give for `CCCCCCCCCCCC(=O)N(CCOC(=O)c1ccco1)CCOC(=O)c1ccco1` here?
**A.** The T/C was 108 % of control.

**Q.** What about the T/C [14] of the same compound?
**A.** Its T/C is 91 % of control.

**Q.** And the T/C [15]?
**A.** Its T/C is 87 % of control.

**Q.** `Nc1ccc(-c2nc3ccccc3[nH]2)cc1` was tested. Which T/C (dose: 50.0 mg/kg/injection, schedule: Q04DX003 (ip), vehicle: saline) did it give?
**A.** Its T/C is 100 % of control.

**Q.** And the T/C (dose: 100.0 mg/kg/injection, schedule: Q04DX003 (ip), vehicle: saline)?
**A.** The T/C was 100 % of control.

**Q.** What about the T/C (dose: 200.0 mg/kg/injection, schedule: Q04DX003 (ip), vehicle: saline) of the same compound?
**A.** Its T/C is 96 % of control.

**Q.** `Nc1ccccc1C(=O)Nc1ccccc1` was tested. Which T/C [14] did it give?
**A.** Its T/C is 88 % of control.

**Q.** Which results are given for `COc1ccc2c(N)cccc2c1`?
**A.** T/C [6]: 92 % of control; T/C [11]: 88 % of control; T/C [12]: 95 % of control

**Q.** Which results are given for `Oc1ccc(Nc2c3ccccc3nc3c2ccc2ccccc23)cc1CN(CCCl)CCCl`?
**A.** T/C (dose: 7.2 mg/kg/injection, schedule: Q04DX003 (ip), vehicle: saline): 194 % of control; T/C (dose: 11.0 mg/kg/injection, schedule: Q04DX003 (ip), vehicle: saline): 205 % of control; T/C (dose: 16.0 mg/kg/injection, schedule: Q04DX003 (ip), vehicle: saline): 161 % of control

**Q.** Which results are given for `CCOC(=O)Nc1cc(NC/C(=N/O)c2ccc(C(F)(F)F)cc2)c([N+](=O)[O-])c(N)n1`?
**A.** T/C (dose: 50.0 mg/kg/injection, schedule: Q01DX001 (ip), vehicle: saline with Tween-80): 94 % of control; T/C (dose: 100.0 mg/kg/injection, schedule: Q01DX001 (ip), vehicle: saline with Tween-80): 96 % of control

**Q.** How did the T/C [7] turn out when `C=C1C(=O)OC2C(OC(=O)C(C)C)CCCC12` (configuration not stated) was run?
**A.** Its T/C is 105 % of control.

**Q.** And the T/C [8]?
**A.** The T/C was 100 % of control.

**Q.** What about the T/C (dose: 240.0 mg/kg/injection, schedule: Q01DX005 (ip), vehicle: Klucel (hydroxypropylcellulose) (HPC)) of the same compound?
**A.** The T/C was 102 % of control.

**Q.** For `CCOc1ccc(Nc2cc([N+](=O)[O-])ccc2C(=O)O)cc1`, which T/C [13] is on record?
**A.** Its T/C is 91 % of control.

**Q.** What about the T/C [15] of the same compound?
**A.** Its T/C is 108 % of control.

From PubChem BioAssay AID330 (DTP/NCI, 2004)
